Values quoted from earlier work, collected in patent US20240173315A1 (OWP Pharmaceuticals, Inc., priority 2022, published 2024).
Where a name gives a salt, the structure may show the parent alone. Read-outs that look alike come from different tables or passages of the source.

Columns and labels:
[1] = humans, oral
CYP3A4 = biological target: T1, CYP3A4 (Homo sapiens, UniProt P08684); conditions: in vitro
T1 construct: In vitro studies in human liver microsomes; from tissue; host or cells: human liver microsomes

[2] = oral dose

T1 sequence (P08684 whole entry): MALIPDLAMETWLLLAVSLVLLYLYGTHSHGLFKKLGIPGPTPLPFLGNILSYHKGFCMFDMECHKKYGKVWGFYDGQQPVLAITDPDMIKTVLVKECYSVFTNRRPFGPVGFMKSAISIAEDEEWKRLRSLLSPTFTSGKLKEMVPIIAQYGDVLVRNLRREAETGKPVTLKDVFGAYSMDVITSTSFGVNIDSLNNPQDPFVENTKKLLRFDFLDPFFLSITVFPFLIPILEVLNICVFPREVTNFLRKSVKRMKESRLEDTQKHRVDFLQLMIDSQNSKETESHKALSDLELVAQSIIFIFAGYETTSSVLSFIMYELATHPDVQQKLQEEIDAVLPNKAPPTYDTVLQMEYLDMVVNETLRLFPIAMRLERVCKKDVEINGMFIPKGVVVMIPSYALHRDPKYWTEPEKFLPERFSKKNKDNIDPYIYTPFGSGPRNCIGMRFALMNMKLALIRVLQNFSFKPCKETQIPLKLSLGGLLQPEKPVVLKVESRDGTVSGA

Structure (SMILES)	time after dosing at which peak plasma levels occur ([1]; taken on an empty stomach)	effect of food on amount of drug absorbed ([1]; taken shortly after ingestion of food)	time after dosing at which peak plasma levels occur ([1]; taken with food) [h]	metabolism in human liver microsomes (CYP3A4)	excreted unchanged in the urine [2]
O=c1n(CCCN2CCN(c3cccc(Cl)c3)CC2)nc2ccccn12 [trazodone hydrochloride]	approximately one	increase	~2		
O=c1n(CCCN2CCN(c3cccc(Cl)c3)CC2)nc2ccccn12 [trazodone, 2-{3-[4-(3-chlorophenyl)piperazin-1-yl]propyl}[1,2,4]triazolo[4,3-a]pyridin-3(2H)-one]				metabolized, via oxidative cleavage, to an active metabolite, m-chlorophenvlpipera.zine (mCPP) by CYP3A4	less than 1 % of an oral dose
